Data taken from patent US9598396B2, “Tetrahydrophenanthridinones and tetrahydrocyclopentaquinolinones as PARP and tubulin polymerization inhibitors” (Janssen Pharmaceutica NV, priority 2008, dated 2017).

Columns and labels:
TANK-2 enzyme = TANK-2 enzyme (Homo sapiens (Human), UniProt Q9H2K2); experiment: In vitro Scintillation Proximity Assay (SPA) for TANK-2 inhibitory activity; assay type: biochemical; details: auto-poly(ADP-ribosyl)ation, [3H]-NAD+, Ni flash plates (96 or 384 well)
Protocol: C.2.In Vitro Scintillation Proximity Assay (SPA) for TANK-2 Inhibitory Activity
Compounds of the present invention were tested in an in vitro assay based on SPA technology with Ni Flash plates (96 or 384 well).
In principle, the assay relies upon SPA technology for the detection of auto-poly(ADP-ribosyl)ation of TANK-2 protein using [^3H]-nicotinamide adenine dinucleotide ([^3H]-NAD^+) as ADP-ribosyl donor.
A stock solution of 100 nM [^3H]-NAD^+/NAD (0.1 mCi/ml, supplier: Perkin Elmer) and 25 μM NAD (Sigma) was made in assay buffer (60 mM Tris/HCl, pH 7.4; 0.9 mM DTT; 6 mM MgCl2). The TANK-2 enzyme was produced as described in EP1238063. 60 μl of assay buffer, together with 1 μl of compound in DMSO, 20 μl of [^3H]-NAD^+/NAD and 20 μl of TANK-2 enzyme (final concentration 8 μg/ml) was added per well into a 96-well Ni-coated flash plate (Perkin Elmer). After incubation of the mixture for 120 minutes at room temperature, the reaction was terminated by adding 60 μl of stopsolution (42.6 mg NAD in 6 ml H2O). The plates were covered with a plate sealer and placed in a TopCountNXT™ (Packard) for scintillation counting. Values were expressed as counts per minute (cpm). For each experiment, controls (containing TANK-2 enzyme and DMSO without compound), a blank incubation (containing DMSO but no TANK-2 enzyme or compound) and samples (containing TANK-2 enzyme and compound dissolved in DMSO) were run in parallel. All compounds tested were dissolved and eventually further diluted in DMSO. In first instance, compounds were tested at a concentration of 10^−5M. […] In each test, the blank value was subtracted from both the control and the sample values. The control sample represented maximal TANK-2 enzyme activity. For each sample, the amount of cpm was expressed as a percentage of the mean cpm value of the controls. […] Herein the effects of test compounds are expressed as pIC50 (the negative log value of the IC50-value). As reference compounds, 3-aminobenzamide and 4-amino-1,8-naphtalimide were included to validate the SPA assay. Herein the assay was described using 96-well plates. In the assay using 384-well plates the same final concentrations were used and volumes were adapted.

Human PARP-1 enzyme = Human PARP-1 enzyme (Homo sapiens (Human), UniProt P09874); experiment: In vitro Scintillation Proximity Assay (SPA) for PARP-1 inhibitory activity; assay type: biochemical; details: nicked DNA activated PARP-1, [3H]-NAD+, biotinylated histones
Protocol: C.1.In Vitro Scintillation Proximity Assay (SPA) for PARP-1 Inhibitory Activity
Compounds of the present invention were tested in an in vitro assay based on SPA technology (proprietary to GE healthcare).
In principle, the assay relies upon the well established SPA technology for the detection of poly(ADP-ribosyl)ation of biotinylated target proteins, i.e histones. This ribosylation is induced using nicked DNA activated PARP-1 enzyme and [^3H]-nicotinamide adenine dinucleotide ([^3H]-NAD^+) as ADP-ribosyl donor.
Histones (type II-A, supplier: Sigma) were biotinylated using the biotinylation kit of Amersham and stored aliquoted at −20° C. A stock solution of 100 mg/ml SPA poly(vinyl toluene) (PVT) beads (supplier: Amersham) was made in PBS. A stock solution of 61.6 nM […] was made by adding [^3H]-NAD^+ (0.1 mCi/ml, supplier: Perkin Elmer) to incubation buffer (50 mM Tris/HCl, pH 8; 0.2 mM DTT; 4 mM MgCl2). A solution of 4 mM NAD^+ (supplier: Sigma) was made. Human PARP-1 enzyme was obtained from Trevigen. Biotinylated histones and PVT-SPA beads were mixed and pre-incubated for 30 minutes at room temperature. PARP-1 enzyme (concentration was lot dependent) was mixed with the nicked DNA and the mixture was pre-incubated for 30 minutes at 4° C. Equal parts of this histones/PVT-SPA beads solution and PARP-1 enzyme/DNA solution were mixed and 75 μl of this mixture together with 1 μl of compound in DMSO and 25 μl of [^3H]-NAD^+was added per well into a 96-well microtiterplate. The final concentrations in the incubation mixture were 2 μg/ml for the biotinylated histones, 2 mg/ml for the PVT-SPA beads, 0.25 μg/ml for the nicked DNA and between 0.1-0.2 μg/ml for the PARP-1 enzyme. After incubation of the mixture for 20 minutes at room temperature, the reaction was terminated by adding 100 μl of 4 mM NAD^+ in water (final concentration 2 mM) and plates were mixed. The beads were sedimented by centrifugation (10 min, 800 rpm) and plates transferred to a TopCountNXT™ (Packard) for scintillation counting, values were expressed as counts per minute (cpm). For each experiment, controls (containing PARP-1 enzyme and DMSO without compound), a blank incubation (containing DMSO but no PARP-1 enzyme, no DNA or compound) and samples (containing PARP-1 enzyme, DNA and compound dissolved in DMSO) were run in parallel. All compounds tested were dissolved and eventually further diluted in DMSO. A dose-response curve was made wherein the compounds were tested at concentrations between 10^−5M and 3×10^−9M. In each test, the blank value was subtracted from both the control and the sample values. The control sample represented maximal PARP-1 enzyme activity. For each sample, the amount of cpm was expressed as a percentage of the mean cpm value of the controls. […] Herein the effects of test compounds are expressed as pIC50 (the negative log value of the IC50-value). As a reference compound, 4-amino-1,8-naphthalimide was included to validate the SPA assay.

[1] = tested on: Human colon carcinoma HCT116 cells; experiment: Detection of antiproliferative activity (Alamar Blue assay); assay type: cell-based; details: HCT-116, 96 h, 4-day incubation, read-out: Cellular assay HCT116 pIC50 (converted)
Protocol: Example C.4 Detection of Antiproliferative Activity
Human colon carcinoma HCT116 cells obtained from the ATCC were cultured in McCoy's 5A medium supplemented with 2 mM L-Glutamine, 50 μg/ml gentamicin and 10% heat inactivated fetal calf serum.
Reagents used in the Alamar Blue Assay
Resazurin was purchased from Aldrich (Prod. No. 199303). Potassium ferrocyanide, potassium ferricyanide, KH2PO4 and K2HPO4 were purchased from Sigma (Prod. Nos. P9387, P8131, P5655 and P8281, respectively).
Potassium Phosphate Buffer 0.1 M (PPB) was made as follows: 2.72 gram KH2PO4 and 13.86 gram K2HPO4 were dissolved in 500 ml milli-Q H2O, the pH was adjusted to pH 7.4 and the volume was brought to 1 liter with milli-Q H2O; the buffer was filter sterilised and stored at room temperature. Resazurin stock solution (PPB-A) was prepared fresh by dissolving 45 mg resazurin in 15 ml PBS. 30 mM potassium ferricyanide (PPB-B) was prepared by dissolving 0.987 gram potassium ferricyanide in 100 ml PPB. 30 mM potassium ferrocyanide (PPB-C) was prepared by dissolving 1.266 gram potassium ferrocyanide in 100 ml PPB.
Mixture of PPB-A, PPB-B and PPB-C was prepared by mixing equal volumes of the respective solutions. Resazurin work solution (herein termed “Alamar Blue” solution) was prepared by diluting said mixture 20× (vol/vol) in PPB and filter sterilising; the Alamar Blue solution could be kept at 4° C. for a maximum of 2 weeks.
Procedure of the Alamar Blue Assay
For experiments in 384 wells plates the cells were seeded at a density of 4.5×10^3 cells/ml in Falcon 384-well culture plates (Life Technologies, Merelbeke, Belgium), black with clear bottom, in 45 μl culture medium. Cells were allowed to adhere to plastic for 24 hours. The tested compound was pre-diluted (1/50 in culture medium) and 5 μl pre-diluted compound was added to the wells. Following 4-day incubation, 10 μl of the Alamar Blue solution was added to each well and the cells were further incubated for 4 hours (HCT116) or 24 hours (PC-3) at 37° C. The fluorescence intensity was measured for each well on a Fluorescence plate reader (Fluorskan, Labsystems, 540 nm excitation and 590 nm emission)
The antiproliferative activity was calculated as percentage of remaining viable cells in treated versus control (untreated cells) conditions. Within an experiment, the result for each experimental condition is the mean of 3 replicate wells. When appropriate, the experiments were repeated to establish full concentration-response curves. […] Herein the effects of tested compounds are expressed as pIC50 (the negative log value of the IC50 value) (see Table 3).

Chain of TANK-2 enzyme (Q9H2K2 whole entry): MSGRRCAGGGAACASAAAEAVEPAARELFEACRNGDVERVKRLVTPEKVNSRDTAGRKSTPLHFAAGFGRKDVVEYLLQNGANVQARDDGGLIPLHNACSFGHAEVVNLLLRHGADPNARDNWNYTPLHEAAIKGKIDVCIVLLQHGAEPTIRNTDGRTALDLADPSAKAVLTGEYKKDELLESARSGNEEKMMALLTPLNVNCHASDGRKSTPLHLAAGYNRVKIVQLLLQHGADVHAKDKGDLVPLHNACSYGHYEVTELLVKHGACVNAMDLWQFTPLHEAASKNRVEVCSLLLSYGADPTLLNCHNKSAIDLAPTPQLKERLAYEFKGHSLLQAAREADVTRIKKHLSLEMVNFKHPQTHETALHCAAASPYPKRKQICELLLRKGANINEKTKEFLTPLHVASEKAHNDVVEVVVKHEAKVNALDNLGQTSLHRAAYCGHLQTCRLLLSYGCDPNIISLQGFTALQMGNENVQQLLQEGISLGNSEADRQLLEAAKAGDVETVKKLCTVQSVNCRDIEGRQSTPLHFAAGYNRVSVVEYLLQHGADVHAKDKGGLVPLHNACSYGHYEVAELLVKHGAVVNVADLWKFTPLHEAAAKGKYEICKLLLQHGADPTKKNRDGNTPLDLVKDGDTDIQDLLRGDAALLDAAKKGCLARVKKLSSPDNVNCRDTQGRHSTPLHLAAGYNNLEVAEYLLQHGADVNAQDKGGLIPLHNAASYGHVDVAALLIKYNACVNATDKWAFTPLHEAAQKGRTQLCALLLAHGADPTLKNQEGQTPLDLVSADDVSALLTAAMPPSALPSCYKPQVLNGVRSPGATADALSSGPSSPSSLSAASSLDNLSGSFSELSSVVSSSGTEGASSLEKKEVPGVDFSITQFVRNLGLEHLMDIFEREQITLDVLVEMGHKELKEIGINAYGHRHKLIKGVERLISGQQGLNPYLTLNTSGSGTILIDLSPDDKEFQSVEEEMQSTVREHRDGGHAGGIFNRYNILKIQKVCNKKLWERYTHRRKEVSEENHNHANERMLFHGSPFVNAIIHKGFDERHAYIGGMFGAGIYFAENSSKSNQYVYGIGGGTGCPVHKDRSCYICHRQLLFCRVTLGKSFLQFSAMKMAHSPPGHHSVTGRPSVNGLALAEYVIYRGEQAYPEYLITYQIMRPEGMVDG
Chain of Human PARP-1 enzyme (P09874 whole entry): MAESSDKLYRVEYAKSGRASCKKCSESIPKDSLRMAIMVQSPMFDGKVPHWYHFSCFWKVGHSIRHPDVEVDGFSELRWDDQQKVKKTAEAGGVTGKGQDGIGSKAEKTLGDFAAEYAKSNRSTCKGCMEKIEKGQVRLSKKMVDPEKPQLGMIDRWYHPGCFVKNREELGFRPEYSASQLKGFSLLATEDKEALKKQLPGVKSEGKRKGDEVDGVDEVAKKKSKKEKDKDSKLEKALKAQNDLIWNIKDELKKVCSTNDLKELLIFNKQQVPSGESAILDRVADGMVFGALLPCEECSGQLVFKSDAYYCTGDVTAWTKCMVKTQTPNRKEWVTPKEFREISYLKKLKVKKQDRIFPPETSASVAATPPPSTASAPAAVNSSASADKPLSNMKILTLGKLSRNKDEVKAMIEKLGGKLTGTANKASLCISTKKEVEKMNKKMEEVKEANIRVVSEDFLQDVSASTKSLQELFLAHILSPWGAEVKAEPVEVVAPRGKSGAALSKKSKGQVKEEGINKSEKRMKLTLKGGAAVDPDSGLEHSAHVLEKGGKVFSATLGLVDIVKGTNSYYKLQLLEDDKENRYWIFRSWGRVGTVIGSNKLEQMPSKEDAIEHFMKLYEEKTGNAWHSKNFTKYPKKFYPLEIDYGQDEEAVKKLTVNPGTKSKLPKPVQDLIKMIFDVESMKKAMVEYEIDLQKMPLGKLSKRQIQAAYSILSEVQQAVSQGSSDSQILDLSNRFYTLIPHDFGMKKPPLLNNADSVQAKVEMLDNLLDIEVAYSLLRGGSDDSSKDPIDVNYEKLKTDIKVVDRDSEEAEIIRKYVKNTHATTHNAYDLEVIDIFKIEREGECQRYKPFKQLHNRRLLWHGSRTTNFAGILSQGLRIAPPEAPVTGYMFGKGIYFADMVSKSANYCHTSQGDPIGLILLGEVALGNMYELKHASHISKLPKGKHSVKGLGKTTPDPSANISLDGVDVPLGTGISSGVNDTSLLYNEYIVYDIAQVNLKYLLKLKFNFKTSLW

Structure (SMILES)	in vitro SPA assay TANK-2 pIC50 (TANK-2 enzyme)	in vitro SPA assay PARP-1 pIC50 (Human PARP-1 enzyme)	IC50 [1] [nM]	IC50 (TANK-2 enzyme; read-out: in vitro SPA assay TANK-2 pIC50 (converted)) [nM]	IC50 (Human PARP-1 enzyme; read-out: in vitro SPA assay PARP-1 pIC50 (converted)) [nM]
C[C@@](C#N)(Cc1ccccc1)c1ccc2c3c(c(=O)[nH]c2c1)CCCC3 (single isomer, unassigned) [Co. No. 2]	7.43	7.33	> 10000		
C[C@](C#N)(Cc1ccccc1)c1ccc2c3c(c(=O)[nH]c2c1)CCCC3 (single isomer, unassigned) [Co. No. 3]	7.48	7.26	158		
C[C@@](C#N)(Cc1cccc(F)c1)c1ccc2c3c(c(=O)[nH]c2c1)CCCC3 (single isomer, unassigned) [Co. No. 5a]	7.40	7.80	> 10000		
C[C@](C#N)(Cc1cccc(F)c1)c1ccc2c3c(c(=O)[nH]c2c1)CCCC3 (single isomer, unassigned) [Co. No. 5b]	7.47	7.44	97.7		
CC(C#N)(Cc1cc(Cl)nc(Cl)c1)c1ccc2c3c(c(=O)[nH]c2c1)CCCC3 (stereo not drawn) [Co. No. 9]	6.35	7.20	158		
CC(C#N)(Cc1cccc(OC(F)(F)F)c1)c1ccc2c3c(c(=O)[nH]c2c1)CCCC3 (stereo not drawn) [Co. No. 10]	7.23	6.66	186		
COc1cccc(CC(C)(C#N)c2ccc3c4c(c(=O)[nH]c3c2)CCCC4)c1 (stereo not drawn) [Co. No. 11]	7.45	7.06	155		

Results, then the compound that gave them:

in vitro SPA assay TANK-2 pIC50 (TANK-2 enzyme)	in vitro SPA assay PARP-1 pIC50 (Human PARP-1 enzyme)	IC50 [1] [nM]	IC50 (TANK-2 enzyme; read-out: in vitro SPA assay TANK-2 pIC50 (converted)) [nM]	IC50 (Human PARP-1 enzyme; read-out: in vitro SPA assay PARP-1 pIC50 (converted)) [nM]	Structure (SMILES)
7.37	7.34	178			Cn1nc(CC(C)(C#N)c2ccc3c4c(c(=O)[nH]c3c2)CCCC4)c2ccccc21 (stereo not drawn) [Co. No. 12]
7.37	7.38	269			Cn1c(CC(C)(C#N)c2ccc3c4c(c(=O)[nH]c3c2)CCCC4)nc2ccccc21 (stereo not drawn) [Co. No. 13]
		105	63.1	97.7	COC(=O)c1cccc(CC(C)(C#N)c2ccc3c4c(c(=O)[nH]c3c2)CCCC4)c1 (stereo not drawn) [Co. No. 14]
7.39	7.48	229			CC(C#N)(Cc1cccc(CO)c1)c1ccc2c3c(c(=O)[nH]c2c1)CCCC3 (stereo not drawn) [Co. No. 15]
7.42	6.10	417			CC(C#N)(Cc1cccc(CN)c1)c1ccc2c3c(c(=O)[nH]c2c1)CCCC3 (stereo not drawn) [Co. No. 16]
		> 10000			CN(CC(C)(C#N)c1ccc2c3c(c(=O)[nH]c2c1)CCCC3)C(=O)c1ccccc1 (stereo not drawn) [Co. No. 18]
7.19		589			CN(Cc1ccc(C#N)cc1)CC(C)(C#N)c1ccc2c3c(c(=O)[nH]c2c1)CCCC3 (stereo not drawn) [Co. No. 19]
